In patent publication US9308295B2, “Oxygenated demineralized bone matrix for bone growth” (THERACELL, INC., priority 2013, dated 2016):

Columns and labels:
[1] = system: new bone formation in subcutaneous pouch; test: Subcutaneous implantation of DBM/PFC slurry in a rat pouch, histology at 28 days; format: in vivo; settings: subcutaneous pocket, PFC with DBM
Method: (§1) The induction of bone growth using DBM and an oxygen carrier was previously disclosed in U.S. Publication Application No. 2012/0082704, the entire contents of which are herein incorporated by reference. In order to investigate the properties of a perfluorocarbon (PFC) oxygen carrier and to investigate the effects of DBM and a PFC in two environments having different vascularization, four different PFCs were assayed in combination with DBM. Specifically perfluorohexane, (PFC1), perfluorodecalin (PFC2), perfluorotributylamine (PFC3), and perfluoroperhydrophenanthrene (PFC4) were mixed with DBM (powder or chips) to form a DBM/PFC mixture. In some embodiments, the amount of PFC in the PFC/DBM mixture is in the range of about 32-48 weight %. Sterile saline was then added to provide a slurry with the handling characteristics of wet sand. […] This DBM/PFC slurry mixture was then applied to a subcutaneous pouch and an intramuscular pouch in the rat biceps femoris.
(§2) 0.4 ml of the perfluorocarbon was filtered through a 0.2 micron filter and added to 0.8 g of DBM (powder or chips) at the time of surgery prior to implantation in either a subcutaneous or an intramuscular pouch in the rat biceps femoris. Using a sterile spatula the mixture was gently mixed to ensure complete wetting out of the DBM powder. This was assessed visually. 1.4 ml of sterile saline was then added to the mixture and the resultant slurry was loaded into a 1 ml syringe with its end removed, resulting in a composition including PFC at about 32 to about 48% by weight. The mixture was lightly tamped and using the plunger on the syringe a 0.2 ml implant volume was defined. This was then introduced into the rat pouch. The PFCs included several perfluoroperhydrophenanthrene and perfluorodecalin that have achieved FDA clearance for use in various procedures in humans. In prior studies bone forms readily in DBM implanted in the SD […] model, and thus a human DBM was selected specifically to be from low activity level batches (1965 picograms/gram BMP2; Spec>2300) (Allosource®, Centennial, Colo.). A formulation consisting of DBM+PFC+Saline was prepared at the time of surgery. […] Perfluorohexane, (PFC1), perfluorodecalin (PFC2), and perfluoroperhydrophenanthrene (PFC4) were obtained from a GMP manufacturer and have varying levels of US Device/Drug usage. Accordingly, perfluorohexane, (PFC1), perfluorodecalin (PFC2), and perfluoroperhydrophenanthrene (PFC4) represent material and supplier suitable for use in a commercial product.
(§3) 30 SD Rats (Rattusnorvegicus, CR; NIH-RNU) received bilateral placement of test article (i.e., the DBM and PFC slurry) intramuscularly within the biceps femoris muscle or subcutaneously. Each animal acted as its own control with a saline/DBM implant in the contralateral limb. […]

[2] = system: new bone formation in intramuscular pouch in the rat biceps femoris; test: Intramuscular implantation of DBM/PFC slurry in rat biceps femoris, histology at 28 days; format: in vivo; settings: DBM/PFC slurry mixture in saline, intramuscular pocket in biceps femoris, control DBM alone in contralateral limb
Method: as §1, §2, §3

[3] = in vivo; cited from earlier work

Structure (SMILES) | performance of the PFCs relative to each other in new bone formation [1] | histologic grade of new bone formation as compared to DBM alone [2] | retention in the liver [3]
FC(F)(F)C(F)(F)C(F)(F)C(F)(F)C(F)(F)C(F)(F)F [PFC1, Perfluorohexane] | performed equally | increased histologic grade of new bone formation | –
FC(F)(F)C(F)(F)C(F)(F)C(F)(F)N(C(F)(F)C(F)(F)C(F)(F)C(F)(F)F)C(F)(F)C(F)(F)C(F)(F)C(F)(F)F [PFC3, Perfluorotributylamine] | performed equally | increased histologic grade of new bone formation | –
FC1(F)C(F)(F)C(F)(F)C2(F)C(F)(C1(F)F)C(F)(F)C(F)(F)C1(F)C(F)(F)C(F)(F)C(F)(F)C(F)(F)C12F (stereo not drawn) [PFC4, Perfluoroperhydrophenanthrene] | performed equally | increased histologic grade of new bone formation | –
FC1(F)C(F)(F)C(F)(F)C2(F)C(F)(F)C(F)(F)C(F)(F)C(F)(F)C2(F)C1(F)F (stereo not drawn) [PFC2, Perfluorodecalin] | performed better than PFC1, PFC3, and PFC4 | increased histologic grade of new bone formation | not retained in the liver
